Data as given in ChEMBL document CHEMBL5625187, “A facile and selective derivatization approach on kynurenine-NH2 in daptomycin, leading to the discovery of hexakynomycin to combat multidrug-resistant Gram-positive pathogens especially daptomycin-resistant bacteria” (Eur J Med Chem, 2023).
In brackets after ≈: the same amount, converted by molar mass. Activity calls are given as the source filed them. The calls are words filed in the database; no cut-off is given here.

Key:
Enterococcus faecalis [1] = experiment: Antibacterial activity against Enterococcus faecalis EFA 20-1 assessed as reduction in microbial growth incubated for 24 hrs by broth microdilution method; assay type: functional
Staphylococcus aureus [2] = experiment: Antibacterial activity against vancomycin-intermediate resistant Staphylococcus aureus ATCC 700699 assessed as reduction in microbial growth incubated for 24 hrs by broth microdilution method; assay type: functional
Staphylococcus aureus [3] = experiment: Antibacterial activity against vancomycin-intermediate resistant Staphylococcus aureus Mu 50 assessed as reduction in microbial growth incubated for 24 hrs by broth microdilution method; assay type: functional
Enterococcus faecalis [4] = experiment: Antibacterial activity against vancomycin-resistant Enterococcus faecalis VREfa 20-1 assessed as reduction in microbial growth incubated for 24 hrs by broth microdilution method; assay type: functional
Enterococcus faecium [5] = experiment: Antibacterial activity against glycopeptide-resistant Enterococcus faecium Efm-HS-0649 assessed as reduction in microbial growth incubated for 24 hrs by broth microdilution method; assay type: functional
Staphylococcus aureus [6] = experiment: Antimicrobial activity in Staphylococcus aureus Newman ATCC 25904 infected in ICR mouse excisional wound model assessed as decrease in bacterial growth at 20 mg/kg administered topically and measured after 24 hrs relative to control; assay type: functional; design: scale not given: the % may be the effect or the level left; conditions: route top
Enterococcus faecalis [7] = experiment: Potency index, ratio of daptomycin MIC to test compound MIC for antibacterial activity against Enterococcus faecalis ATCC 29212; assay type: functional
Staphylococcus aureus [8] = experiment: Antibacterial activity against methicillin-resistant Staphylococcus aureus clinical isolate 20-1 assessed as reduction in microbial growth incubated for 24 hrs by broth microdilution method; assay type: functional
Staphylococcus aureus [9] = experiment: Ratio of MIC for antibacterial activity against Staphylococcus aureus in presence of PG to MIC for antibacterial activity against Staphylococcus aureus; assay type: functional
[10] = Half life in PBS at pH 7.2 to 7.4 at 37 degC for 24 hrs; assay type: ADME
HEK293 = experiment: Cytotoxicity against HEK293 cells assessed as reduction in cell viability at 80 ug/ml after 72 hrs by CCK-8 assay relative to control; assay type: toxicity, cell-based; conditions: human, hek293, 72 h, at 80 µg/mL
Enterococcus faecium [11] = experiment: Antibacterial activity against Enterococcus faecium EFM 20-1 assessed as reduction in microbial growth incubated for 24 hrs by broth microdilution method; assay type: functional
Enterococcus faecalis [12] = experiment: Antibacterial activity against Enterococcus faecalis ATCC 29212 assessed as reduction in microbial growth incubated for 24 hrs by broth microdilution method; assay type: functional
Staphylococcus aureus [13] = experiment: Potency index, ratio of daptomycin MIC to test compound MIC for antibacterial activity against methicillin-susceptible Staphylococcus aureus Newman ATCC 25904; assay type: functional
Staphylococcus aureus [14] = experiment: Antibacterial activity against methicillin-resistant Staphylococcus aureus clinical isolate 20-3 assessed as reduction in microbial growth incubated for 24 hrs by broth microdilution method; assay type: functional
Staphylococcus aureus [15] = experiment: Antibacterial activity against methicillin-susceptible Staphylococcus aureus clinical isolate 20-1 assessed as reduction in microbial growth incubated for 24 hrs by broth microdilution method; assay type: functional
Staphylococcus aureus [16] = experiment: Induction of drug resistance against Staphylococcus aureus Newman ATCC 25904 assessed as fold increase in MIC after 15 days by broth microdilution method; assay type: functional; conditions: time 15.0 day
Staphylococcus aureus [17] = experiment: Antibacterial activity against methicillin-susceptible Staphylococcus aureus Newman ATCC 25904 assessed as reduction in microbial growth incubated for 24 hrs by broth microdilution method; assay type: functional
Staphylococcus aureus [18] = experiment: Antibacterial activity against Staphylococcus aureus assessed as reduction in bacterial growth incubated for 16 to 24 hrs by serial dilution method; assay type: functional; conditions: time 16-24 hrs
Staphylococcus aureus [19] = experiment: Induction of membrane disruption in Staphylococcus aureus at 4 to 16 ug/ml incubated for 4 hrs by propidium iodide staining based flow cytometric analysis; assay type: functional, organism-based; conditions: dose 4-16 µg/ml
Staphylococcus aureus [20] = experiment: Antibacterial activity against methicillin-resistant Staphylococcus aureus clinical isolate 20-2 assessed as reduction in microbial growth incubated for 24 hrs by broth microdilution method; assay type: functional
Staphylococcus aureus [21] = experiment: Antibacterial activity against Staphylococcus aureus infected in zebra fish model assessed as survival rate at 10 mg/kg, ip after 24 hrs by relative to control; assay type: functional
Staphylococcus aureus [22] = experiment: Antibacterial activity against methicillin-resistant Staphylococcus aureus clinical isolate 20-3 infected in iv dosed Kunming mouse model assessed as increase in survival measured after 14 days; assay type: functional; conditions: Clinical isolate 20-3, 336 h, time 14 day
Staphylococcus aureus [23] = experiment: Potency index, ratio of daptomycin MIC to test compound MIC for antibacterial activity against methicillin-susceptible Staphylococcus aureus ATCC 29213; assay type: functional
Staphylococcus aureus [24] = experiment: Antibacterial activity against methicillin-resistant Staphylococcus aureus USA300 assessed as reduction in microbial growth incubated for 24 hrs by broth microdilution method; assay type: functional
Enterococcus faecalis [25] = experiment: Potency index, ratio of daptomycin MIC to test compound MIC for antibacterial activity against Enterococcus faecalis EFA 20-1; assay type: functional
Staphylococcus aureus [26] = experiment: Antibacterial activity against Staphylococcus aureus infected in zebra fish model assessed as survival rate at 10 mg/kg, ip after 8 hrs by relative to control; assay type: functional
Staphylococcus aureus [27] = experiment: Antibacterial activity against Staphylococcus aureus assessed as reduction in bacterial growth incubated for 16 to 24 hrs in presence of PG by serial dilution method; assay type: functional; conditions: time 16-24 hrs
Enterococcus faecium [28] = experiment: Potency index, ratio of daptomycin MIC to test compound MIC for antibacterial activity against Enterococcus faecium EFM 20-1; assay type: functional
[29] = Solubility of compound in saline at >10 mg/ml at room temperature; assay type: physicochemical; conditions: buffer
Staphylococcus aureus [30] = experiment: Antibacterial activity against Staphylococcus aureus assessed as reduction in bacterial growth incubated for 16 to 24 hrs in presence of CAMHB medium by serial dilution method; assay type: functional; conditions: time 16-24 hrs
Staphylococcus aureus [31] = experiment: Ratio of MIC for antibacterial activity against Staphylococcus aureus in presence of MHB medium to MIC for antibacterial activity against Staphylococcus aureus CAMHB medium; assay type: functional
Staphylococcus aureus [32] = experiment: Antibacterial activity against methicillin-susceptible Staphylococcus aureus ATCC 29213 assessed as reduction in microbial growth incubated for 24 hrs by broth microdilution method; assay type: functional
[33] = Toxicity in ICR mouse excisional wound model infected with Staphylococcus aureus Newman ATCC 25904 assessed as change in weight at 20 mg/kg administered topically for 7 days; assay type: organism-based; conditions: in vivo, topical_or_ocular, 168 h, route top, time 7 day
Staphylococcus aureus [34] = experiment: Antibacterial activity against Staphylococcus aureus assessed as reduction in bacterial growth incubated for 16 to 24 hrs in presence of MHB medium by serial dilution method; assay type: functional; conditions: time 16-24 hrs
[35] = Observed volume of distribution at steady state in CD-1 mouse at 1 mg/kg, iv measured up to 24 hrs by UPLC-MS analysis; assay type: ADME, organism-based; conditions: in vivo, read-out: Vdss
[36] = Solubility of compound in deionized water at >10 mg/ml at room temperature; assay type: physicochemical; conditions: buffer
Enterococcus faecium [37] = experiment: Potency index, ratio of daptomycin MIC to test compound MIC for antibacterial activity against glycopeptide-resistant Enterococcus faecium Efm-HS-0649; assay type: functional
Erythrocyte = experiment: Hemolytic activity in rat RBC at 400 ug/ml incubated for 1 hr; assay type: toxicity, cell-based; conditions: dose 400 µg/ml
[38] = Toxicity in ICR mouse excisional wound model infected with Staphylococcus aureus Newman ATCC 25904 assessed as survival at 20 mg/kg administered topically for 7 days; assay type: organism-based; conditions: in vivo, topical_or_ocular, 168 h, route top, time 7 day
Staphylococcus aureus [39] = experiment: Potency index, ratio of daptomycin MIC to test compound MIC for antibacterial activity against methicillin-susceptible Staphylococcus aureus clinical isolate 20-1; assay type: functional

CN[C@H](CC(C)C)C(=O)N[C@H]1C(=O)N[C@@H](CC(N)=O)C(=O)N[C@H]2C(=O)N[C@H]3C(=O)N[C@H](C(=O)N[C@H](C(=O)O)c4cc(O)cc(O)c4-c4cc3ccc4O)[C@H](O)c3ccc(c(Cl)c3)Oc3cc2cc(c3O[C@@H]2O[C@H](CO)[C@@H](O)[C@H](O)[C@H]2O[C@H]2C[C@](C)(N)[C@H](O)[C@H](C)O2)Oc2ccc(cc2Cl)[C@H]1O [VANCOMYCIN]
MIC (Enterococcus faecalis [1]): 1 µg/mL
MIC (Staphylococcus aureus [2]): 8 µg/mL
MIC (Staphylococcus aureus [3]): 8 µg/mL
MIC (Enterococcus faecalis [4]): > 16 µg/mL
MIC (Enterococcus faecium [5]): > 128 µg/mL

CCCCCCCCCC(=O)N[C@@H](Cc1c[nH]c2ccccc12)C(=O)N[C@H](CC(N)=O)C(=O)N[C@@H](CC(=O)O)C(=O)N[C@@H]1C(=O)NCC(=O)N[C@@H](CCCN)C(=O)N[C@@H](CC(=O)O)C(=O)N[C@H](C)C(=O)N[C@@H](CC(=O)O)C(=O)NCC(=O)N[C@H](CO)C(=O)N[C@@H]([C@H](C)CC(=O)O)C(=O)N[C@@H](CC(=O)c2ccccc2NCCCCCC)C(=O)O[C@@H]1C
Activity (Staphylococcus aureus [6]): 100%
Ratio (Enterococcus faecalis [7]): >=4
MIC (Staphylococcus aureus [8]): ≤ 0.008 µg/mL
Ratio (Staphylococcus aureus [9]): 512
MIC (Enterococcus faecalis [1]): 0.5 µg/mL
half-life [10]: 19 days
Activity (HEK293): ~ 100%
MIC (Enterococcus faecium [11]): 1 µg/mL
MIC (Staphylococcus aureus [2]): 2 µg/mL
MIC (Enterococcus faecalis [12]): 0.5 µg/mL
Ratio (Staphylococcus aureus [13]): 4
MIC (Staphylococcus aureus [14]): ≤ 0.008 µg/mL
MIC (Staphylococcus aureus [15]): 0.015 µg/mL
MIC (Staphylococcus aureus [3]): 2 µg/mL
fold change (FC) (Staphylococcus aureus [16]): 4
MIC (Staphylococcus aureus [17]): 0.5 µg/mL
MIC (Staphylococcus aureus [18]): 0.5 µg/mL (≈ 0.293 µM)
Activity (Staphylococcus aureus [19]): Active
MIC (Staphylococcus aureus [20]): 0.03 µg/mL
survival at 10 mg/kg (Staphylococcus aureus [21]): 25%
ED50 (Staphylococcus aureus [22]): 0.29 mg/kg
Ratio (Staphylococcus aureus [23]): >=4
MIC (Staphylococcus aureus [24]): 0.125 µg/mL
Ratio (Enterococcus faecalis [25]): >=4
survival at 10 mg/kg (Staphylococcus aureus [26]): 37.5%
MIC (Staphylococcus aureus [27]): 256 µg/mL
MIC (Enterococcus faecalis [4]): 0.5 µg/mL
Ratio (Enterococcus faecium [28]): >=4
MIC (Enterococcus faecium [5]): 0.25 µg/mL
solubility [29]: Soluble
MIC (Staphylococcus aureus [30]): 0.5 µg/mL
Ratio (Staphylococcus aureus [31]): 8
MIC (Staphylococcus aureus [32]): ≤ 0.008 µg/mL
Activity [33]: Non-Toxic
MIC (Staphylococcus aureus [34]): 4 µg/mL
Vd [35]: 0.2 L/kg
solubility [36]: Soluble
Ratio (Enterococcus faecium [37]): 4
Activity (Erythrocyte): Non-Toxic
Activity [38]: Non-Toxic
Ratio (Staphylococcus aureus [39]): >=4

CCCCCCCCCC(=O)N[C@@H](Cc1c[nH]c2ccccc12)C(=O)N[C@H](CC(N)=O)C(=O)N[C@@H](CC(=O)O)C(=O)N[C@@H]1C(=O)NCC(=O)N[C@@H](CCCN)C(=O)N[C@@H](CC(=O)O)C(=O)N[C@H](C)C(=O)N[C@@H](CC(=O)O)C(=O)NCC(=O)N[C@H](CO)C(=O)N[C@@H]([C@H](C)CC(=O)O)C(=O)N[C@@H](CC(=O)c2ccccc2NCc2ccccc2)C(=O)O[C@@H]1C
Ratio (Staphylococcus aureus [13]): 4
MIC (Staphylococcus aureus [3]): 4 µg/mL
MIC (Staphylococcus aureus [17]): 0.5 µg/mL
MIC (Staphylococcus aureus [24]): 0.5 µg/mL
MIC (Enterococcus faecium [5]): 1 µg/mL
Ratio (Enterococcus faecium [37]): 4

CCCCCCCCCCNc1ccccc1C(=O)C[C@@H]1NC(=O)[C@H]([C@H](C)CC(=O)O)NC(=O)[C@@H](CO)NC(=O)CNC(=O)[C@H](CC(=O)O)NC(=O)[C@@H](C)NC(=O)[C@H](CC(=O)O)NC(=O)[C@H](CCCN)NC(=O)CNC(=O)[C@@H](NC(=O)[C@H](CC(=O)O)NC(=O)[C@@H](CC(N)=O)NC(=O)[C@H](Cc2c[nH]c3ccccc23)NC(=O)CCCCCCCCC)[C@@H](C)OC1=O (single isomer, unassigned)
Ratio (Staphylococcus aureus [13]): 2
MIC (Staphylococcus aureus [3]): 4 µg/mL
MIC (Staphylococcus aureus [17]): 2 µg/mL
MIC (Staphylococcus aureus [24]): 2 µg/mL
MIC (Enterococcus faecium [5]): 2 µg/mL
Ratio (Enterococcus faecium [37]): 2

CCCCCCCCCC(=O)N[C@@H](Cc1c[nH]c2ccccc12)C(=O)N[C@H](CC(N)=O)C(=O)N[C@@H](CC(=O)O)C(=O)N[C@@H]1C(=O)NCC(=O)N[C@@H](CCCN)C(=O)N[C@@H](CC(=O)O)C(=O)N[C@H](C)C(=O)N[C@@H](CC(=O)O)C(=O)NCC(=O)N[C@H](CO)C(=O)N[C@@H]([C@H](C)CC(=O)O)C(=O)N[C@@H](CC(=O)c2ccccc2N)C(=O)O[C@@H]1C
MIC (Staphylococcus aureus [8]): 1 µg/mL
Ratio (Staphylococcus aureus [9]): 32
MIC (Enterococcus faecalis [1]): 4 µg/mL
MIC (Enterococcus faecium [11]): 8 µg/mL
MIC (Staphylococcus aureus [2]): 8 µg/mL
MIC (Enterococcus faecalis [12]): 4 µg/mL
MIC (Staphylococcus aureus [14]): 1 µg/mL
MIC (Staphylococcus aureus [15]): 1 µg/mL
MIC (Staphylococcus aureus [3]): 8 µg/mL
fold change (FC) (Staphylococcus aureus [16]): 4
MIC (Staphylococcus aureus [17]): 2 µg/mL
MIC (Staphylococcus aureus [18]): 4 µg/mL (≈ 2.47 µM)
Activity (Staphylococcus aureus [19]): Active
MIC (Staphylococcus aureus [20]): 1 µg/mL
ED50 (Staphylococcus aureus [22]): 0.2 mg/kg
MIC (Staphylococcus aureus [24]): 2 µg/mL
MIC (Staphylococcus aureus [27]): 128 µg/mL
MIC (Enterococcus faecalis [4]): 8 µg/mL
MIC (Enterococcus faecium [5]): 8 µg/mL
MIC (Staphylococcus aureus [30]): 4 µg/mL
Ratio (Staphylococcus aureus [31]): 16
MIC (Staphylococcus aureus [32]): 1 µg/mL
MIC (Staphylococcus aureus [34]): 64 µg/mL
Vd [35]: 0.115 L/kg
Activity (Erythrocyte): Non-Toxic
